Data as given in patent US20060199816A1, “Aryl sulfonyl piperidines” (priority 2005, published 2006).

Biological target: human HSD1 (Homo sapiens, UniProt P28845)
Experiment: in vitro inhibition of 11β-HSD1 (cortisone to cortisol conversion, time-resolved fluorescence)
Format: biochemical
Details: purified human HSD1, cortisone substrate, NADPH, 30 min incubation, time-resolved fluorescence readout; read-out: hHSD1 IC50
Description: Purified human HSD1 was diluted in 50 mM Tris-HCl, 100 mM NaCl, 0.1 mg/ml BSA, 0.02% Lubrol, 20 mM MgCl2, 10 mM glucose 6-phosphate, 0.4 mM NADPH, 60 U/ml glucose 6-phosphate dehydrogenase to a concentration of 1.5 ug/ml (Enzyme Solution). Cortisone (100 uM) in DMSO was diluted to 1 uM with 50 mM Tris-HCl, 100 mM NaCl (Substrate Solution). Testing compounds (40 uM) in DMSO was diluted 3 fold in series in DMSO and further diluted 20 fold in Substrate Solution. Enzyme Solution (10 ul/well) was added into 384 well microtiter plates followed by diluted compound solutions (10 ul/well) and mixed well. Samples were then incubated at […] for 30 min. EDTA/biotin-cortisol solution (10 ul/well) in 28 mM EDTA, 100 nM biotin-cortisol, 50 mM Tris-HCl, 100 mM NaCl was then added followed by 5 ul/well of anti-cortisol antibody (3.2 ug/ml) in 50 mM Tris-HCl, 100 mM NaCl, 0.1 mg/ml BSA and the solution was incubated at 37 degrees for 30 min. Five ul per well of Eu-conjugated anti-mouse IgG (16 nM) and APC-conjugated streptavidin (160 nM) in 50 mM Tris-HCl, 100 mM NaCl, 0.1 mg/ml BSA was added and the solution was incubated at room temperature for 2 hours. Signals were quantitated by reading time-resolved fluorescence on a Victor 5 reader (Wallac).
Percent inhibition of HSD1 activity by an agent at various concentrations was calculated by the formula % Inhibition=100*[1−(Fs−Fb)/(Ft−Fb)], where: • Fs is the fluorescence signal of the sample which included the agent, • Fb is the fluorescence signal in the absence of HSD1 and agent, • Ft is the fluorescence signal in the presence of HSD1, but no agent.
The inhibitory activities of test compounds were determined by the IC50s, or the concentration of compound that gave 50% inhibition.

Chain of human HSD1 (P28845 whole entry): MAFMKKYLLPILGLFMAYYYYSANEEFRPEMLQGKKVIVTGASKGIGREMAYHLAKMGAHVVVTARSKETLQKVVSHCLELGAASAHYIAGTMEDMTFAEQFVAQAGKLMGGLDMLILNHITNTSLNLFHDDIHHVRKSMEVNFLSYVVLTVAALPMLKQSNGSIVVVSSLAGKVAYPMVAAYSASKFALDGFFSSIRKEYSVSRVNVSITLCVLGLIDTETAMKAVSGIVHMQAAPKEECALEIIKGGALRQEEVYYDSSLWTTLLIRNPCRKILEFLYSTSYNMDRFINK

| IC50 [nM] | SMILES |
| --- | --- |
| 12000 | Cc1c(Cl)cccc1S(=O)(=O)N1CCCC(C(=O)NCCCc2ccccc2)C1 (stereo not drawn) [Example 80, 1-(3-Chloro-2-methyl-benzenesulfonyl)-piperidine-3-carboxylic acid (3-phenyl-propyl)-amide] |
| 31 | CC(CNC(=O)C1CCCN(S(=O)(=O)c2ccccc2Cl)C1)c1ccccc1 (stereo not drawn) [Example 50] |
| 3000 | Cc1ccccc1CNC(=O)C1CCCN(S(=O)(=O)c2ccccc2)C1 (stereo not drawn) [Example 175, 1-Benzenesulfonyl-piperidine-3-carboxylic acid 2-methyl-benzylamide] |
| 290 | CC(C)CCNC(=O)[C@@H]1CCCN(S(=O)(=O)c2ccccc2Cl)C1 [Example 2, (3R)-1-(2-Chloro-benzenesulfonyl)-piperidine-3-carboxylic acid (3-methyl-butyl)-amide] |
| 910 | O=C(NCCc1cccc(Cl)c1)C1CCCN(S(=O)(=O)c2cccc3cccnc23)C1 (stereo not drawn) [Example 157, 1-(Quinoline-8-sulfonyl)-piperidine-3-carboxylic acid [2-(3-chloro-phenyl)-ethyl]-amide] |
| 25 | O=C(NCc1cccc2ccccc12)C1CCCN(S(=O)(=O)c2ccccc2Cl)C1 (stereo not drawn) [Example 43, 1-(2-Chloro-benzenesulfonyl)-piperidine-3-carboxylic acid (naphthalen-1-ylmethyl)-amide] |
| 940 | CCC(COC)NC(=O)C1CCCN(S(=O)(=O)c2ccccc2)C1 (stereo not drawn) [Example 173, 1-Benzenesulfonyl-piperidine-3-carboxylic acid (1-methoxymethyl-propyl)-amide] |

The next lines start with the molecule.

| SMILES | IC50 [nM] |
| --- | --- |
| O=C(NC1CCCCC1)C1CCCN(S(=O)(=O)c2ccc3ccccc3c2)C1 (stereo not drawn) [Example 73, 1-(Naphthalene-2-sulfonyl)-piperidine-3-carboxylic acid cyclohexylamide] | 47 |
| O=C(NC1CCCc2ccccc21)C1CCCN(S(=O)(=O)c2cccs2)C1 (stereo not drawn) [Example 187, 1-(Thiophene-2-sulfonyl)-piperidine-3-carboxylic acid (1,2,3,4-tetrahydro-naphthalen-1-yl)-amide] | 190 |
| O=C(NC1CCc2ccccc21)C1CCCN(S(=O)(=O)c2ccccc2)C1 (stereo not drawn) [Example 169, 1-Benzenesulfonyl-piperidine-3-carboxylic acid indan-1-ylamide] | 390 |
| Cc1ccccc1CNC(=O)C1CCCN(S(=O)(=O)c2ccc(F)cc2)C1 (stereo not drawn) [Example 128, 1-(4-Fluoro-benzenesulfonyl)-piperidine-3-carboxylic acid 2-methyl-benzylamide] | 3000 |
| CC(C)c1ccc(S(=O)(=O)N2CCCC(C(=O)NC3CCCCC3)C2)cc1 (stereo not drawn) [Example 135, 1-(4-Isopropyl-benzenesulfonyl)-piperidine-3-carboxylic acid cyclohexylamide] | 390 |
